Experimental data as given in patent US5494936A, “Delivery formulation for probucol” (priority 1994, dated 1996).
Read-outs that look alike come from different tables or passages of the source.

Key:
HIV = details: cited from earlier work
[1] = cited from earlier work
Solubility of probucol = format: physicochemical; details: formulation A; 10% probucol; ethanol not required to prevent precipitation
Method: The ethanol was added as a cosolvent to prevent precipitation of probucol from the peanut oil in formulations B & C.

SMILES: Cc1cn([C@H]2C[C@H](N=[N+]=[N-])[C@@H](CO)O2)c(=O)[nH]c1=O [AZT]
- death rate (HIV; after one year, 159 patients, estimated average CD4+ count 189): 15%

SMILES: CC(C)(Sc1cc(C(C)(C)C)c(O)c(C(C)(C)C)c1)Sc1cc(C(C)(C)C)c(O)c(C(C)(C)C)c1 [Probucol, bis(3,5-di-tert-butyl-4-hydroxyphenyl) acetone mercaptole]
- water solubility [1]: water-insoluble
- water solubility ([1]; listed as probucol): substantially water insoluble
- solubility in medium chain triglycerides (Solubility of probucol): sufficiently soluble in medium chain triglycerides

SMILES: Nc1ccn([C@H]2CC[C@@H](CO)O2)c(=O)n1 [ddC]
- death rate (HIV; after 12 months, 20 patients, average CD4+ count on entry 154): 25%
